The values below come from US9180155B2, “Compositions from Nigella sativa” (Bio Nexus, Ltd, priority 2013, dated 2015).

The assay relates to Caco-2 monolayers. Description: t10-CLA-induced loss of TEER in Caco-2 monolayers. Particulars: t10-CLA 50 μM control = 100; μg TQ equivalents/mL: Thymoquinone 5.0, NS8 0.11, NS9 0.99, NS10 0.012, NSSpent#2 0.0005; NSSpent#1 5 μg/mL; listed as TQ. The assay is classed as cell-based, human. An excerpt:
The protocol for growing and differentiation the human Caco-2 colon andenocarcinoma cells was a modification of Protocol 3 as described by Yamashita et al. [[…]., and Furuyama, Y. 2002) New and better protocols for a short-term Caco-2 cell culture system, J Pharm Sci 91, 669-679]. Caco-2 Human Colon Adenocarcinoma cells were obtained from ATCC (Rockville, Md.; catalog #HTB-37) and maintained in a growth media: DMEM (Dulbecco's Modified Eagles Medium 1×) containing L-glutamine, glucose; Cellgro catalog #35-010CV with the following additions: (1) Penicillin (5,000 IU/mL)/Streptomycin (5,000 μg/mL) Cellgro catalog #30-001C1, (2) 10% FBS-Fetal Bovine Serum, Characterized; Hyclone catalog #SH30071.3, and (3) 1% NEAA-Non Essential Amino Acids; Cellgro catalog #25-025-CI; cells were cultured at 37 C in a humidified air-5% CO2 atmosphere in T175 flasks. BIOCOAT^R HTS Caco-2 Assay System kits (Becton Dickinson, N.J.; catalog #354801) consisting of 24-well fibrillar collagen coated inserts and feeder trays were used in all experiments and plated as follows. Media was removed from the T175 flasks and cells were washed with 10 mLs PBS (phosphate buffered saline 1× without Ca^++, without Mg^++; Cellgro #25-053-CI). […]

With `CC1=CC(=O)C(C(C)C)=CC1=O` [Thymoquinone, thymoquinone], the “Relative Loss of TEER” value is listed as “inhibited loss of TEER”.
